The target of this test is nCDase (Homo sapiens, UniProt Q9NR71). As to the kind of experiment: manual RBM-ceramide assay with fresh compounds. The conditions noted are these: dose titration. In kind it is biochemical.

One may read the IC50 as the point on the concentration scale where inhibition reaches its midpoint. A higher IC50 goes with weaker potency.

Sequence of nCDase (Q9NR71 99-780 limits assumed): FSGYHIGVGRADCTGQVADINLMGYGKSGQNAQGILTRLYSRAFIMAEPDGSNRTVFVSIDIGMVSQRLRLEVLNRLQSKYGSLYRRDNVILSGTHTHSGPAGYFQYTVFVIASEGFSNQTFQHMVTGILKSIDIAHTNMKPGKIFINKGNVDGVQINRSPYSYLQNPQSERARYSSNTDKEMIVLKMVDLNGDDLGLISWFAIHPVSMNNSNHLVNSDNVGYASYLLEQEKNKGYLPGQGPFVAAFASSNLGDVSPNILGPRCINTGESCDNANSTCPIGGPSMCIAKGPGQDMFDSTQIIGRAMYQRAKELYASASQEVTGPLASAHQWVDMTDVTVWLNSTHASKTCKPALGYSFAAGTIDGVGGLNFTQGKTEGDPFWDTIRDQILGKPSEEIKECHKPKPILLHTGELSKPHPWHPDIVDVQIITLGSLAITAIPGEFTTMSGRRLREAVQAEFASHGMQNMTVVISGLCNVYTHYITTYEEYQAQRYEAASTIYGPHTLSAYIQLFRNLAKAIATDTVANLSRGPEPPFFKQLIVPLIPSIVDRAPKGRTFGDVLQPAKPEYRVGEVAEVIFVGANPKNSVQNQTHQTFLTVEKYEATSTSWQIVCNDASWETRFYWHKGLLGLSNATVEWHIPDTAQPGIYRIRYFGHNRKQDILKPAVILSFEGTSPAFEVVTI

With `CC(/C=C/C(=O)NO)=C\[C@@H](C)C(=O)c1ccc(N(C)C)cc1` [TSA, Trichostatin A], the IC50 is 4 µM.
